Data from publication PMC11571215, “Optimization of Antiproliferative Properties of Triimine Copper(II) Complexes” (Journal of Medicinal Chemistry, 2024).

Experiments:
[1] = tested on: BAX and BCL-2 proteins in HCT116-DoxR cells; experiment: BAX and BCL-2 protein expression by Western Blot; format: cell-based, human; conditions: 48 h at IC50; normalized to 0.1% DMSO control and β-actin
Method: 0.1% DMSO was used as a negative control and β-actin protein was used for the normalization of the total protein quantity.
HCT116-DoxR cells were seeded in a 25 cm^2 T-flask at a density of 2 × 10^6 cells/T-flask. […] Cells were incubated for 48 h and later were washed and collected using cold PBS 1× and a cell scraper. […]
After the storage period, the samples were submitted 5 ultrasound (Elma sonicator, D-78224 Singen/Htw, Germany) cycles on ice (2 min and 30 s on ultrasound followed by 1 min period on ice) and then centrifuged at 10,000 × g for 5 min. The supernatant was transferred to a 1.5 mL Eppendorf tube, and the total protein extracted was quantified with Pierce 660 nm Protein Assay kit (ThermoFisher Scientific, MA, USA).
In the SDS-PAGE analysis of BAX and BCL-2 proteins, 20 μg of protein was applied into a 10% polyacrylamide gel as well as NZYColour protein marker II and transferred to a 0.45 μm polyvinylidene fluoride (PVDF) membrane (GE Healthcare Life Sciences, Germany). […] Protein quantification was done by densitometry with ImageJ software.

[2] = tested on: normal human primary dermal fibroblasts; experiment: MTS cell viability assay, normal fibroblasts; format: cell-based; conditions: 48 h of exposure
Method: The antiproliferative effect of the Cu(II) complexes in tumor and healthy cell lines was assessed through the MTS assay, a colorimetric method that is widely used to evaluate cellular viability, specifically mitochondrial viability.[53],[54] Cellular viability was determined after 48 h exposure to a concentration range (0.1–50 μM) of Cu(II) complexes in three tumor cell lines. […] Additionally, the viability of healthy primary dermal fibroblasts was performed as a comparison of the complexes’ antiproliferative effects in normal cells.
Cellular viability assays were performed using HCT116, HCT116-DoxR, and A2780 cancer cell lines as well as normal human primary fibroblasts. Cells were seeded at a density of 0.75 × 10^5 cells/mL in 96-well plates and incubated at 37 °C with 5% (v/v) CO2 for 24 h. After this incubation period, the copper complexes were accurately weighed and immediately dissolved in 100% (v/v) dimethyl sulfoxide (DMSO). Subsequently, the complexes were diluted to the final concentration using a cell culture medium. The culture medium in each well was replaced with fresh medium containing varying concentrations of the complexes (ranging from 0.01 to 50 μM). Negative controls contained culture medium with 0.1% (v/v) DMSO, and positive controls contained 0.4 μM Dox.
After an additional 48 h of incubation under the same conditions, cellular viability was assessed using the CellTiter 96 Aqueous One Solution Cell Proliferation Assay kit (Promega, Madison, USA). […] The absorbance of formazan, measured at 490 nm in a microplate reader (Tecan Infinite M200, Tecan, Männedorf, Switzerland), is directly proportional to the number of viable cells.[104]
The cell viability versus concentration graphics were analyzed using Prism 8 software (GraphPad) to determine the half-maximal inhibitory concentration (IC50) of each complex for the respective cell line. Additionally, the selective index (SI) for each complex was calculated by dividing the IC50 of human fibroblasts by the IC50 values of the tested cancer cell lines.

pUC18 plasmid DNA (pDNA) = experiment: Plasmid DNA interaction and cleavage (gel electrophoresis); conditions: 24 h; for pDNA cleavage / isoform change: 100 ng pUC18, 5–100 μM complex, 37 °C; for pDNA cleavage in presence of NaN3 scavenger: 50 μM complex + 50 μM NaN3, 37 °C; for pDNA cleavage in presence of H2O2: 50 μM complex + 100 μM H2O2, 37 °C
Method: The procedure involved exposing 100 ng of pDNA (pUC18) to increasing concentrations of complexes Cu1a and Cu1b (5, 25, 50, 75, and 100 μM), which were incubated at 37 °C for 24 h.
The sodium azide (NaN3) scavenger, capable of quenching singlet oxygen (^−1O2), was used for this purpose.[93] Additionally, hydrogen peroxide (H2O2) was employed as a well-known positive control for DNA cleavage through oxidative mechanisms in the presence of ROS.[71]
Experiments were conducted with 100 ng of pUC18 DNA incubated with increasing concentrations of Cu1a and Cu1b complexes (5, 25, 50, 75, and 100 μM) or in their absence (pUC18 only or with 0.1% DMSO (v/v), both negative controls). For this assay, positive control was included, containing pUC18 DNA (100 ng) previously incubated with the HindIII enzyme to linearize the plasmid in the last 2 h of incubation. […] Electrophoresis was performed in 0.8% (w/v) agarose gel (NZYtech) in TAE 1× buffer at a constant voltage of 70 V for 80 min. The electrophoresis gel image was acquired using the Gel Doc EZ Imager (Bio-Rad), and band quantification was performed using ImageJ software.
The pDNA (100 ng) was exposed to reactive oxygen species (ROS) scavenging agents, namely, sodium azide (NaN3) at 50 μM and hydrogen peroxide (H2O2) at 100 μM. […] Controls were also included where 100 ng of pUC18 was exposed to 0.1% (v/v) DMSO, and the activity of the HindIII restriction enzyme (linearized plasmid control) for 24 h. All the samples were adjusted to a final volume of 20 μL and incubated for 24 hs at 37 °C. […] The electrophoresis gel image was acquired in Gel Doc EZ Imager (Bio-Rad) and band quantification was performed using ImageJ software.

[3] = Stability/solubility in RPMI culture medium by UV-vis; format: physicochemical; conditions: 50 μM, without phenol red and FBS, 0 to 3 h, 37 °C
Method: The complexes (powder form) were first dissolved in 100% (v/v) DMSO and subsequently in RPMI culture medium without phenol red and fetal bovine serum (FBS), at a final concentration of 50 μM. Absorption spectra were recorded in the wavelength range of 220–800 nm. As previously, high-energy absorption bands corresponding to π → π* and n → π* transitions with peaks between 230 and 380 nm ranges were observed, which may correspond to the aromatic rings of terpyridine.[24],[38]
Copper complex stability in a biological medium was analyzed through UV–vis spectroscopy spanning a range from 220 to 800 nm. Complexes were dissolved in 100% (v/v) DMSO and subsequently diluted with RPMI medium (without phenol red) to achieve a final concentration of 50 μM. The measurements were conducted in a quartz cuvette with a 1 cm path length. Spectral analyses were obtained after 0, 3, 6, 24, and 48 h on the Evolution 300 UV–vis spectrophotometer (Thermo Fisher Scientific in Waltham, MA, USA).

SMILES	BAX/BCL-2 ratio higher than control [1] [×]	IC50 [2] [µM]	pDNA cleavage / isoform change (pUC18 plasmid DNA (pDNA))	pDNA cleavage in presence of NaN3 scavenger (pUC18 plasmid DNA (pDNA))	pDNA cleavage in presence of H2O2 (pUC18 plasmid DNA (pDNA))	solubility/stability in RPMI culture medium [3]
[Cl][Cu-3]12([Cl])[n+]3ccccc3-c3cc(-c4cccc5ccccc45)cc([n+]31)-c1cccc[n+]12 [Cu1a]	1.80	9.26 ± 0.9	an increase in the circular form (N) was observed compared to negative control with the simultaneous decrease of the supercoiled isoform	an increase in the supercoiled isoform and a reduction in the nicked isoform	pDNA cleavage increased compared to H2O2 alone	maintenance of solubility
[Cl][Cu-3]12([Cl])[n+]3ccccc3-c3cc(-c4ccc5ccccc5c4)cc([n+]31)-c1cccc[n+]12 [Cu1b]	1.65	13.3 ± 1	a decrease in supercoiled forms and an increase in the intensity of the circular isoform at concentrations of 25 and 50 μM	an increase in the supercoiled isoform and a decrease in the nicked isoform	a complete disappearance of pDNA isoforms is observed	a slight reduction of its solubility from 0 to 3 h
